According to US20060110333A1 (priority 2002, published 2006):

Test: Plasma buprenorphine concentration after single administration (LC-MS/MS)
Conditions: 0.1 mg/kg in terms of buprenorphine, cynomolgus monkey

Compound `CO[C@@]12CC[C@@]3(C[C@@H]1[C@](C)(O)C(C)(C)C)[C@H]1Cc4ccc(O)c5c4[C@@]3(CCN1CC1CC1)[C@H]2O5.Cl` [Comparative Example 2, buprenorphine hydrochloride] has a Plasma buprenorphine concentration (0 min, mean ± SD, intravenous) of 0 ng/mL, a Plasma buprenorphine concentration (10 min, Animal 1, intravenous) of 41.40 ng/mL and a Plasma buprenorphine concentration (10 min, Animal 2, intravenous) of 32.16 ng/mL. It also gave a Plasma buprenorphine concentration (10 min, Animal 3, intravenous) of 41.33 ng/mL, a Plasma buprenorphine concentration (10 min, mean ± SD, intravenous) of 38.30 ± 5.31 ng/mL and a Plasma buprenorphine concentration (30 min, Animal 1, intravenous) of 32.83 ng/mL. It also gave a Plasma buprenorphine concentration (30 min, Animal 2, intravenous) of 18.02 ng/mL, a Plasma buprenorphine concentration (30 min, Animal 3, intravenous) of 33.53 ng/mL and a Plasma buprenorphine concentration (30 min, mean ± SD, intravenous) of 28.12 ± 8.76 ng/mL. For the same compound, the Plasma buprenorphine concentration (60 min, Animal 1, intravenous) was 16.85 ng/mL, the Plasma buprenorphine concentration (60 min, Animal 2, intravenous) was 16.45 ng/mL and the Plasma buprenorphine concentration (60 min, Animal 3, intravenous) was 26.51 ng/mL. The Plasma buprenorphine concentration (60 min, mean ± SD, intravenous) was 19.94 ± 5.70 ng/mL, the Plasma buprenorphine concentration (120 min, Animal 1, intravenous) was 8.27 ng/mL and the Plasma buprenorphine concentration (120 min, Animal 2, intravenous) was 9.34 ng/mL. For the same compound, the Plasma buprenorphine concentration (120 min, Animal 3, intravenous) was 16.13 ng/mL, the Plasma buprenorphine concentration (120 min, mean ± SD, intravenous) was 11.25 ± 4.26 ng/mL and the Plasma buprenorphine concentration (240 min, Animal 1, intravenous) was 3.78 ng/mL. The Plasma buprenorphine concentration (240 min, Animal 2, intravenous) was 4.55 ng/mL, the Plasma buprenorphine concentration (240 min, Animal 3, intravenous) was 7.05 ng/mL and the Plasma buprenorphine concentration (240 min, mean ± SD, intravenous) was 5.13 ± 1.71 ng/mL. The Plasma buprenorphine concentration (480 min, Animal 1, intravenous) was 1.46 ng/mL, the Plasma buprenorphine concentration (480 min, Animal 2, intravenous) was 0.97 ng/mL and the Plasma buprenorphine concentration (480 min, Animal 3, intravenous) was 2.00 ng/mL. The Plasma buprenorphine concentration (480 min, mean ± SD, intravenous) was 1.48 ± 0.52 ng/mL.
